According to patent EP3262942A1, “SELENODIARYLS FOR USE AS MICROBICIDE OR AS MEDICINE” (Evonik Degussa GmbH, priority 2016, dated 2018):

How the values were obtained:
[1] = tested on: Candida albicans; assay: Growth test in microtiter plates, HA medium, 24 h, visual evaluation; type: cell-based; design: key: +: kein Wachstum im Vergleich zur Wachstumskontrolle; -: Wachstum wie Wachstumskontrolle
[2] = tested on: Paecilomyces variotii; assay: as above; type: cell-based; design: key: +: kein Wachstum im Vergleich zur Wachstumskontrolle; -: Wachstum wie Wachstumskontrolle
[3] = tested on: M. grisea H2O; assay: microbe, parasite or virus in culture; type: cell-based, Magnaporthe grisea; details: Pyricularia grisea, H2O, 24 h, read-out: Aktivität gegenüber M. grisea H2O
[4] = tested on: Setaria italica; assay: Crop plant growth test, seeds on filter discs, 4 days, visual evaluation; type: in vivo
Description: (§1) Testsubstanzen und Kontrollen werden auf Filterrondellen in Mikrotiterplatten (48 well) vorgelegt und das verwendete Lösungsmittel (DMSO) über Lyophilisation entfernt. Anschließend werden ca. 12 Samen pro Vertiefung (Setaria italical Lepidium sativum) zugeben, mit 200 µl sterilem Leitungswasser pro Vertiefung versetzt, mit einem Deckel versehen und in einer feuchten Kammer für 4 Tage im Pflanzenbrutschrank inkubiert (16h-Licht-8h-Dunkel-Rhythmus). Die Auswertung des Tests erfolgt optisch (+: mind. 75 % Wachstumshemmung im Vergleich zur Kontrolle, -: weniger als 75 % Wachstumshemmung im Vergleich zur Kontrolle.

[5] = tested on: Lepidium sativum; assay: as above; type: in vivo
Description: as §1

[6] = tested on: Penicillium notatum; assay: Growth test in microtiter plates, HA medium, 24 h, visual evaluation; type: cell-based; design: key: +: kein Wachstum im Vergleich zur Wachstumskontrolle; -: Wachstum wie Wachstumskontrolle
[7] = tested on: Mucor miehei; assay: as above; type: cell-based; design: key to Aktivität gegenüber M. miehei: +: kein Wachstum im Vergleich zur Wachstumskontrolle; -: Wachstum wie Wachstumskontrolle
[8] = tested on: P. infestans; assay: microbe, parasite or virus in culture; type: cell-based, Phytophthora infestans; details: for inhibition of growth at 5 µg/mL / inhibition of growth at 10 µg/mL / inhibition of growth at 25 µg/mL / inhibition of growth at 50 µg/mL: Phytophthora infestans, 24 h, read-out: Aktivität gegenüber P. infestans
[9] = tested on: M. grisea CM; assay: microbe, parasite or virus in culture; type: cell-based, Magnaporthe grisea; details: Pyricularia grisea, 24 h, read-out: Aktivität gegenüber M. grisea CM
[10] = tested on: Botrytis cinerea; assay: microbe, parasite or virus in culture; type: cell-based; details: for inhibition of growth at 5 µg/mL / inhibition of growth at 10 µg/mL / inhibition of growth at 25 µg/mL / inhibition of growth at 50 µg/mL: Botrytis cinerea, 24 h, read-out: Aktivität gegenüber B. cinerea

| SMILES | Aktivität gegenüber C. albicans ([1]; 10µg/mL) | Aktivität gegenüber C. albicans ([1]; 50µg/mL) | Aktivität gegenüber P. variotii ([2]; 10µg/mL) | Aktivität gegenüber P. variotii ([2]; 50µg/mL) | inhibition of growth at 5 µg/mL [3] [%] | inhibition of growth at 10 µg/mL [3] [%] | inhibition of growth at 25 µg/mL [3] [%] | inhibition of growth at 50 µg/mL [3] [%] | Aktivität gegenüber Nutzpflanzen: S. italica ([4]; 10µg/R) | Aktivität gegenüber Nutzpflanzen: S. italica ([4]; 20µg/R) | Aktivität gegenüber Nutzpflanzen: S. italica ([4]; 50µg/R) | Aktivität gegenüber Nutzpflanzen: L. sativum ([5]; 10µg/R) | Aktivität gegenüber Nutzpflanzen: L. sativum ([5]; 20µg/R) | Aktivität gegenüber Nutzpflanzen: L. sativum ([5]; 50µg/R) | Aktivität gegenüber P. notatum ([6]; 10µg/mL) | Aktivität gegenüber P. notatum ([6]; 50µg/mL) | Aktivität gegenüber M. miehei ([7]; 10µg/mL) | Aktivität gegenüber M. miehei ([7]; 50µg/mL) | inhibition of growth at 5 µg/mL [8] [%] | inhibition of growth at 10 µg/mL [8] [%] | also measured |
| --- | --- | --- | --- | --- | --- | --- | --- | --- | --- | --- | --- | --- | --- | --- | --- | --- | --- | --- | --- | --- | --- |
| Cc1cc(C)c(O)c([Se]c2c(C)c(C)cc(C)c2O)c1C [Verbindung 17, Bis(2-hydroxy-3,5,6-trimethylphenyl)selen] | - | - | - | - | 0 to 25 | 0 to 25 | 0 to 25 | 0 to 25 | - (weniger als 75 % Wachstumshemmung im Vergleich zur Kontrolle) | - (weniger als 75 % Wachstumshemmung im Vergleich zur Kontrolle) | + (mind. 75 % Wachstumshemmung im Vergleich zur Kontrolle) | - (weniger als 75 % Wachstumshemmung im Vergleich zur Kontrolle) | - (weniger als 75 % Wachstumshemmung im Vergleich zur Kontrolle) | - (weniger als 75 % Wachstumshemmung im Vergleich zur Kontrolle) | - | - | - | - | 0 to 25 | 25 to 50 | inhibition of growth at 25 µg/mL [8]: 25 to 50%; inhibition of growth at 50 µg/mL [8]: 25 to 50%; inhibition of growth at 5 µg/mL [9]: 0 to 25%; inhibition of growth at 10 µg/mL [9]: 0 to 25%; inhibition of growth at 25 µg/mL [9]: 50 to 75%; inhibition of growth at 50 µg/mL [9]: 50 to 75%; inhibition of growth at 5 µg/mL [10]: 0 to 25%; inhibition of growth at 10 µg/mL [10]: 0 to 25%; inhibition of growth at 25 µg/mL [10]: 0 to 25%; inhibition of growth at 50 µg/mL [10]: 0 to 25% |
| Cc1c(Cl)cc(C(C)C)c(O)c1[Se]c1c(C)c(Cl)cc(C(C)C)c1O [Verbindung 21, Bis(3-chlor-6-hydroxy-5-isopropyl-2-methylphenyl)selen] | - | - | - | - | 25 to 50 | > 75 | > 75 | > 75 | - (weniger als 75 % Wachstumshemmung im Vergleich zur Kontrolle) | - (weniger als 75 % Wachstumshemmung im Vergleich zur Kontrolle) | - (weniger als 75 % Wachstumshemmung im Vergleich zur Kontrolle) | - (weniger als 75 % Wachstumshemmung im Vergleich zur Kontrolle) | - (weniger als 75 % Wachstumshemmung im Vergleich zur Kontrolle) | - (weniger als 75 % Wachstumshemmung im Vergleich zur Kontrolle) | - | - | - | - | 0 to 25 | 0 to 25 | inhibition of growth at 25 µg/mL [8]: 0 to 25%; inhibition of growth at 50 µg/mL [8]: 0 to 25%; Wirksamkeit gegenüber P. infestans [8]: keine Wirkung; inhibition of growth at 5 µg/mL [9]: 50 to 75%; inhibition of growth at 10 µg/mL [9]: > 75%; inhibition of growth at 25 µg/mL [9]: > 75%; inhibition of growth at 50 µg/mL [9]: > 75%; inhibition of growth at 5 µg/mL [10]: 0 to 25%; inhibition of growth at 10 µg/mL [10]: 0 to 25%; inhibition of growth at 25 µg/mL [10]: 0 to 25%; inhibition of growth at 50 µg/mL [10]: 0 to 25% |
| Cc1cc(Cl)cc([Se]c2cc(Cl)cc(C)c2O)c1O [Verbindung 22, Bis(3-chlor-6-hydroxy-5-methylphenyl)selen] | - | - | - | - | > 75 | > 75 | > 75 | > 75 | - (weniger als 75 % Wachstumshemmung im Vergleich zur Kontrolle) | - (weniger als 75 % Wachstumshemmung im Vergleich zur Kontrolle) | - (weniger als 75 % Wachstumshemmung im Vergleich zur Kontrolle) | - (weniger als 75 % Wachstumshemmung im Vergleich zur Kontrolle) | - (weniger als 75 % Wachstumshemmung im Vergleich zur Kontrolle) | - (weniger als 75 % Wachstumshemmung im Vergleich zur Kontrolle) | - | - | - | - | 0 to 25 | > 75 | inhibition of growth at 25 µg/mL [8]: > 75%; inhibition of growth at 50 µg/mL [8]: > 75%; inhibition of growth at 5 µg/mL [9]: > 75%; inhibition of growth at 10 µg/mL [9]: > 75%; inhibition of growth at 25 µg/mL [9]: > 75%; inhibition of growth at 50 µg/mL [9]: > 75%; mikrobizide Wirksamkeit gegenüber B. cinerea [10]: mikrobizide Wirksamkeit; inhibition of growth at 5 µg/mL [10]: > 75%; inhibition of growth at 10 µg/mL [10]: > 75%; inhibition of growth at 25 µg/mL [10]: > 75%; inhibition of growth at 50 µg/mL [10]: > 75% |
| Cc1cc(Br)c(O)c([Se]c2cc(C)cc(Br)c2O)c1 [Verbindung 23, Bis(3-brom-2-hydroxy-5-methylphenyl)selen] | - | - | - | - | 0 to 25 | 25 to 50 | > 75 | > 75 | - (weniger als 75 % Wachstumshemmung im Vergleich zur Kontrolle) | - (weniger als 75 % Wachstumshemmung im Vergleich zur Kontrolle) | - (weniger als 75 % Wachstumshemmung im Vergleich zur Kontrolle) | - (weniger als 75 % Wachstumshemmung im Vergleich zur Kontrolle) | - (weniger als 75 % Wachstumshemmung im Vergleich zur Kontrolle) | - (weniger als 75 % Wachstumshemmung im Vergleich zur Kontrolle) | - | - | - | - | 0 to 25 | 0 to 25 | inhibition of growth at 25 µg/mL [8]: 0 to 25%; inhibition of growth at 50 µg/mL [8]: 0 to 25%; Wirksamkeit gegenüber P. infestans [8]: keine Wirkung; inhibition of growth at 5 µg/mL [9]: > 75%; inhibition of growth at 10 µg/mL [9]: > 75%; inhibition of growth at 25 µg/mL [9]: > 75%; inhibition of growth at 50 µg/mL [9]: > 75%; inhibition of growth at 5 µg/mL [10]: 0 to 25%; inhibition of growth at 10 µg/mL [10]: 0 to 25%; inhibition of growth at 25 µg/mL [10]: 0 to 25%; inhibition of growth at 50 µg/mL [10]: 0 to 25% |
